# US10208030B2, “GPR119 agonist compounds” (Mankind Pharma Ltd., priority 2016, dated 2019)
# Molecular target: T1, hGPR119 (Homo sapiens, UniProt Q8TDV5)
# T1 construct: expressed in transfected cells; host or cells: CHO cells (CHO-hGPR119)
# T1 sequence (Q8TDV5 1-335): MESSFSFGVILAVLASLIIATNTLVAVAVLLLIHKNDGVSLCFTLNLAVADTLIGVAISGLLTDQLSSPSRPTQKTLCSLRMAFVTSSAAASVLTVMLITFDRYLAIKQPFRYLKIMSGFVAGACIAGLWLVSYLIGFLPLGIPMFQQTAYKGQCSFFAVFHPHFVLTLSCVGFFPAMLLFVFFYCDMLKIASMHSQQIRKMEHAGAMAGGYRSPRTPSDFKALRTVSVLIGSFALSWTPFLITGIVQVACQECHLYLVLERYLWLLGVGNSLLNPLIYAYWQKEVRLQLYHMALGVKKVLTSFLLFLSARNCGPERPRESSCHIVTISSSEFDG
# Experiment: In vitro cyclic AMP assay (Cisbio HTRF) in CHO-hGPR119 cells
# Type: cell-based
# Conditions: 1 h, cAMP, 1 μM, 60 min, read-out: Induction (% induction at 1 μM)
# Procedure: cAMP measurements were done using Cisbio dynamic 2 HTRF kit according to the manufacturer's protocol. Briefly, CHO-hGPR119 cells were plated at a cell density of 5000 cells/well/5 μl into a white small volume 384 well plate. The final concentrations of IBMX and DMSO used were 1 mM and 0.5% respectively. Cells were treated with various concentrations of the test compound for 60 min at room temperature. Cells were lysed by buffer containing Anti-cAMP antibody and d2-cAMP reagents and incubated for 1 hour at room temperature. HTRF was measured at 337 nm excitation and emission wavelengths of 665 nm and 620 nm on a microplate reader (Flurostar, BMG Labtech). Graphpad prism software was utilized for EC50 determinations.
row,activation at 1 µM [%],Structure (SMILES)
1,21,"COCCNC(=O)c1ccc(-c2nn3cc(C4CCN(C(=O)OC(C)C)CC4)nc3s2)cc1 [Compound 1035, isopropyl 4-(2-(4-((2-methoxyethyl)carbamoyl)phenyl)imidazo[2,1-b][1,3,4]thiadiazol-6-yl)piperidine-1-carboxylate]"
2,24,"CC(C)c1noc(C2CCN(c3nn4cc(-c5ccc(C(=O)N(C)C)cc5)nc4s3)CC2)n1 [Compound 1036, 4-(2-(4-(3-isopropyl-1,2,4-oxadiazol-5-yl)piperidin-1-yl)imidazo[2,1-b][1,3,4]thiadiazol-6-yl)-N,N-dimethylbenzamide]"
3,6,"CS(=O)(=O)c1ccc(OCc2cn3nc(C4CCN(Cc5ccccc5)CC4)sc3n2)cc1 [Compound 1038, 2-(1-benzylpiperidin-4-yl)-6-((4-(methylsulfonyl)phenoxy)methyl)imidazo[2,1-b][1,3,4]thiadiazole]"
4,11,"COCCNC(=O)c1ccc(-c2cn3nc(N4CCC(c5nc(C(C)C)no5)CC4)sc3n2)cc1 [Compound 1039, 4-(2-(4-(3-isopropyl-1,2,4-oxadiazol-5-yl)piperidin-1-yl)imidazo[2,1-b][1,3,4]thiadiazol-6-yl)-N-(2-methoxyethyl)benzamide]"
5,4,"CC(C)c1noc(C2CCN(c3nn4cc(COc5ccc(S(C)(=O)=O)cc5)nc4s3)CC2)n1 [Compound 1040, 3-isopropyl-5-(1-(6-((4-(methylsulfonyl)phenoxy)methyl)imidazo[2,1-b][1,3,4]thiadiazol-2-yl)piperidin-4-yl)-1,2,4-oxadiazole]"
6,2,"CC(C)c1noc(N2CCC(Oc3nn4cc(COc5ccc(S(C)(=O)=O)cc5)nc4s3)CC2)n1 [Compound 1042, 3-isopropyl-5-(4-((6-((4-(methylsulfonyl)phenoxy)methyl)imidazo[2,1-b][1,3,4]thiadiazol-2-yl)oxy)piperidin-1-yl)-1,2,4-oxadiazole]"
7,71,"CC(C)c1noc(C2CCN(c3nn4c(Cl)c(-c5ccc(S(C)(=O)=O)cc5)nc4s3)CC2)n1 [Compound 1044, 5-(1-(5-chloro-6-(4-(methylsulfonyl)phenyl)imidazo[2,1-b][1,3,4]thiadiazol-2-yl)piperidin-4-yl)-3-isopropyl-1,2,4-oxadiazole]"
8,22,"CS(=O)(=O)c1ccc(-c2cn3nc(N4CCC(c5nc(C6CC6)no5)CC4)sc3n2)cc1 [Compound 1045, 3-cyclopropyl-5-(1-(6-(4-(methylsulfonyl)phenyl)imidazo[2,1-b][1,3,4]thiadiazol-2-yl)piperidin-4-yl)-1,2,4-oxadiazole]"
9,26,"CC(C)c1noc(C2CCN(c3nn4cc(-c5ccc(C#N)cc5)nc4s3)CC2)n1 [Compound 1046, 4-(2-(4-(3-isopropyl-1,2,4-oxadiazol-5-yl)piperidin-1-yl)imidazo[2,1-b][1,3,4]thiadiazol-6-yl)benzonitrile]"
10,51,"CC(C)c1noc(N2CCC(C(C)Oc3nn4cc(-c5ccc(C#N)cc5)nc4s3)CC2)n1 (stereo not shown) [Compound 1047, 4-(2-(1-(1-(3-isopropyl-1,2,4-oxadiazol-5-yl)piperidin-4-yl)ethoxy)imidazo[2,1-b][1,3,4]thiadiazol-6-yl)benzonitrile]"
11,56,"CC(C)c1noc(N2CCC(C(C)Oc3nn4cc(-c5ccc(C(=O)N(C)C)cc5)nc4s3)CC2)n1 (stereo not shown) [Compound 1048, 4-(2-(1-(1-(3-isopropyl-1,2,4-oxadiazol-5-yl)piperidin-4-yl)ethoxy)imidazo[2,1-b][1,3,4]thiadiazol-6-yl)-N,N-dimethylbenzamide]"
12,55,"CCCc1cnc(N2CCC(C(C)Oc3nn4cc(-c5ccc(C(=O)N(C)C)cc5)nc4s3)CC2)nc1 (stereo not shown) [Compound 1049, N,N-dimethyl-4-(2-(1-(1-(5-propylpyrimidin-2-yl)piperidin-4-yl)ethoxy)imidazo[2,1-b][1,3,4]thiadiazol-6-yl)benzamide]"
13,68,"CC(C)c1noc(N2CCC(C(C)Oc3nn4cc(-c5ccncc5)nc4s3)CC2)n1 (stereo not shown) [Compound 1050, 3-isopropyl-5-(4-(1-((6-(pyridin-4-yl)imidazo[2,1-b][1,3,4]thiadiazol-2-yl)oxy)ethyl)piperidin-1-yl)-1,2,4-oxadiazole]"
14,7,"CC(C)c1noc(C2CCN(c3nn4cc(-c5ccncc5)nc4s3)CC2)n1 [Compound 1051, 3-isopropyl-5-(1-(6-(pyridin-4-yl)imidazo[2,1-b][1,3,4]thiadiazol-2-yl)piperidin-4-yl)-1,2,4-oxadiazole]"
15,12,"CC(C)c1noc(C2CCN(c3nn4c(Cl)c(-c5ccncc5)nc4s3)CC2)n1 [Compound 1052, 5-(1-(5-chloro-6-(pyridin-4-yl)imidazo[2,1-b][1,3,4]thiadiazol-2-yl)piperidin-4-yl)-3-isopropyl-1,2,4-oxadiazole]"
16,49,"CC(C)c1noc(N2CCC(COc3nn4cc(-c5ccc(C#N)cc5)nc4s3)CC2)n1 [Compound 1053, 4-(2-((1-(3-isopropyl-1,2,4-oxadiazol-5-yl)piperidin-4-yl)methoxy)imidazo[2,1-b][1,3,4]thiadiazol-6-yl)benzonitrile]"
17,16,"CC(C)c1noc(N2CCC(COc3nn4cc(-c5ccncc5)nc4s3)CC2)n1 [Compound 1054, 3-isopropyl-5-(4-(((6-(pyridin-4-yl)imidazo[2,1-b][1,3,4]thiadiazol-2-yl)oxy)methyl)piperidin-1-yl)-1,2,4-oxadiazole]"
18,76,"CC(C)c1noc(N2CCC(C(C)Oc3nn4cc(-c5ccc(S(C)(=O)=O)nc5)nc4s3)CC2)n1 (stereo not shown) [Compound 1055, 3-isopropyl-5-(4-(1-((6-(6-(methylsulfonyl)pyridin-3-yl)imidazo[2,1-b][1,3,4]thiadiazol-2-yl)oxy)ethyl)piperidin-1-yl)-1,2,4-oxadiazole]"
19,73,"CCc1cnc(N2CCC(C(C)Oc3nn4cc(-c5ccncc5)nc4s3)CC2)nc1 (stereo not shown) [Compound 1056, 2-(1-(1-(5-ethylpyrimidin-2-yl)piperidin-4-yl)ethoxy)-6-(pyridin-4-yl)imidazo[2,1-b][1,3,4]thiadiazole]"
20,82,"CC(C)c1noc(N2CCC(C(C)Oc3nn4cc(-c5ccc(S(C)(=O)=O)cc5)nc4s3)CC2)n1 (stereo not shown) [Compound 1057, 3-isopropyl-5-(4-(1-((6-(4-(methylsulfonyl)phenyl)imidazo[2,1-b][1,3,4]thiadiazol-2-yl)oxy)ethyl)piperidin-1-yl)-1,2,4-oxadiazole]"
21,73,"CC(C)c1noc(N2CCC([C@@H](C)Oc3nn4cc(-c5ccc(S(C)(=O)=O)nc5)nc4s3)CC2)n1 [Compound 1058, (R)-3-isopropyl-5-(4-(1-((6-(6-(methylsulfonyl)pyridin-3-yl)imidazo[2,1-b][1,3,4]thiadiazol-2-yl)oxy)ethyl)piperidin-1-yl)-1,2,4-oxadiazole]"
22,65,"CC(C)c1noc(N2CCC([C@@H](C)Oc3nn4cc(-c5ccc(S(C)(=O)=O)cc5)nc4s3)CC2)n1 [Compound 1060, (R)-3-isopropyl-5-(4-(1-((6-(4-(methylsulfonyl)phenyl)imidazo[2,1-b][1,3,4]thiadiazol-2-yl)oxy)ethyl)piperidin-1-yl)-1,2,4-oxadiazole]"
23,79,"CC(C)c1noc(N2CCC(C(C)Oc3nn4c(F)c(-c5ccc(S(C)(=O)=O)cc5)nc4s3)CC2)n1 (stereo not shown) [Compound 1061, 5-(4-(1-((5-fluoro-6-(4-(methylsulfonyl)phenyl)imidazo[2,1-b][1,3,4]thiadiazol-2-yl)oxy)ethyl)piperidin-1-yl)-3-isopropyl-1,2,4-oxadiazole]"
24,78,"CCc1cnc(N2CCC([C@@H](C)Oc3nn4cc(-c5ccc(S(C)(=O)=O)cc5)nc4s3)CC2)nc1 [Compound 1062, (R)-2-(1-(1-(5-ethylpyrimidin-2-yl)piperidin-4-yl)ethoxy)-6-(4-(methylsulfonyl)phenyl)imidazo[2,1-b][1,3,4]thiadiazole]"
25,62,"CC(C)c1noc(N2CCC([C@@H](C)Oc3nn4cc(-c5ccnc(F)c5)nc4s3)CC2)n1 [Compound 1065, (R)-5-(4-(1-((6-(2-fluoropyridin-4-yl)imidazo[2,1-b][1,3,4]thiadiazol-2-yl)oxy)ethyl)piperidin-1-yl)-3-isopropyl-1,2,4-oxadiazole]"
26,72,"CC(C)c1noc(N2CCC([C@@H](C)Oc3nn4c(F)c(-c5ccc(S(C)(=O)=O)cc5)nc4s3)CC2)n1 [Compound 1066, (R)-5-(4-(1-((5-fluoro-6-(4-(methylsulfonyl)phenyl)imidazo[2,1-b][1,3,4]thiadiazol-2-yl)oxy)ethyl)piperidin-1-yl)-3-isopropyl-1,2,4-oxadiazole]"
27,59,"CC(C)c1noc(N2CCC([C@H](C)Oc3nn4cc(-c5cc[n+]([O-])cc5)nc4s3)CC2)n1 [Compound 1068, (S)-4-(2-(1-(1-(3-isopropyl-1,2,4-oxadiazol-5-yl)piperidin-4-yl)ethoxy)imidazo[2,1-b][1,3,4]thiadiazol-6-yl)pyridine 1-oxide]"

# Same assay, conditions: cAMP, class symbols, legend not given
row,EC50,Structure (SMILES)
1,A+,"CC(C)c1noc(N2CCC([C@@H](C)Oc3nn4cc(-c5ccc(S(C)(=O)=O)nc5)nc4s3)CC2)n1 [Compound 1058, (R)-3-isopropyl-5-(4-(1-((6-(6-(methylsulfonyl)pyridin-3-yl)imidazo[2,1-b][1,3,4]thiadiazol-2-yl)oxy)ethyl)piperidin-1-yl)-1,2,4-oxadiazole]"
2,A+,"CC(C)c1noc(N2CCC([C@@H](C)Oc3nn4cc(-c5ccc(S(C)(=O)=O)cc5)nc4s3)CC2)n1 [Compound 1060, (R)-3-isopropyl-5-(4-(1-((6-(4-(methylsulfonyl)phenyl)imidazo[2,1-b][1,3,4]thiadiazol-2-yl)oxy)ethyl)piperidin-1-yl)-1,2,4-oxadiazole]"
3,A+,"CCc1cnc(N2CCC([C@@H](C)Oc3nn4cc(-c5ccc(S(C)(=O)=O)cc5)nc4s3)CC2)nc1 [Compound 1062, (R)-2-(1-(1-(5-ethylpyrimidin-2-yl)piperidin-4-yl)ethoxy)-6-(4-(methylsulfonyl)phenyl)imidazo[2,1-b][1,3,4]thiadiazole]"
4,A+,"CC(C)c1noc(N2CCC([C@@H](C)Oc3nn4c(F)c(-c5ccc(S(C)(=O)=O)cc5)nc4s3)CC2)n1 [Compound 1066, (R)-5-(4-(1-((5-fluoro-6-(4-(methylsulfonyl)phenyl)imidazo[2,1-b][1,3,4]thiadiazol-2-yl)oxy)ethyl)piperidin-1-yl)-3-isopropyl-1,2,4-oxadiazole]"
